{"source": "patent US20240150286A1", "about": "“PEROXISOME PROLIFERATOR-ACTIVATED RECEPTOR GAMMA (PPARy) LIGANDS AND METHODS OF USE AS TREATMENTS FOR INSULIN RESISTANCE, OBESITY, FATTY LIVER DISEASE, AND TYPE 2 DIABETES” (The Board of Regents of the University of Oklahoma, priority 2022, published 2024)", "tested_on": "adipose tissues (iWAT, eWAT, BAT) of DIO mice", "experiment": "Adipose tissue analyses in DIO mice (pS273 Western, qRT-PCR, UCP1, histology, CLS)", "type": "in vivo, mouse", "protocol": "C57BL/6J male mice were obtained from Jackson laboratory (Bar Harbor, ME) and maintained on a 12 h light (6:00 AM to 6:00 PM)—12 h dark (6:00 PM to 6:00 AM) cycle at an ambient temperature of 22±1° C. All animals had access to diet and water ad libitum. All procedures involving animals were approved by the Institutional Animal Care and Use Committee of the University of Oklahoma Health Science Center. All experiments were performed with age-matched male mice. The mice were fed a high-fat diet (HFD) (60% kcal fat, Bio-Serv, NJ, USA) starting from the age of 6 weeks until study end. […] Food intake was determined manually by measuring the amount of input food subtracting the amount of the food remaining in the food hopper and the crumbs on the bedding of the cage each day for three days during the 4th week of the treatment. Packed cell volume (PCV) was measured with blood drawn from tail on a LW Scientific E8 centrifuge (LW Scientific, Lawrenceville, Georgia, USA) microhematocrit centrifuge at the end of study. For all other measurements, the blood was drawn at the time of euthanization.\nLiver, heart, bone, adipose tissues were dissected and immediately fixed in 4% paraformaldehyde (Sigma-Aldrich), paraffin embedded, and stained with hematoxylin and eosin. For Immunofluorescence staining, the eWAT and iWAT paraffin sections were incubated with primary antibody (rabbit polyclonal to F4/80 [1:500, Cat #: 70076], Cell Signaling Technology) overnight at 4° C. after deparaffinization. The slides were washed thrice with PBS with 0.2% Triton and then incubated in secondary antibody, Alexa 488 anti-rabbit (1:500, Jackson ImmunoResearch, PA) for 1.5 h at room temperature. Tissue sections were imaged on the Olympus Fluoview 1000 laser-scanning confocal microscope (Center Valley, PA).\nTotal RNA (2 μg) was isolated from tissues or cells using TRIzol reagents (Life Technologies) and reverse transcribed using oligo d(T) primers (New England Biosystems) and SuperScript IV reverse transcription kit (Applied Biosystems). qPCR was performed in a CFX96 Touch Real-Time PCR detection system using SYBR Green mix (Applied Biosystems). The amplification program was as follows: initial denaturation at 95° C. for 15 min, followed by 40 cycles of 95° C. for 15 s, 60° C. for 1 min, and 40° C. for 30 s. Relative mRNA expression was determined by the ΔΔCt method normalized to TBP mRNA. The sequences of primers used in this study were shown in Table 1 in U.S. Provisional Application Ser. No. 63/419,049, the entirety of which is incorporated herein by reference.\nProteins were extracted with RIPA buffer containing protease and phosphatase inhibitors (Thermo) and then centrifuged for 10 min at 10,000 g. A 30 μg sample of protein was separated on a 10% SDS polyacrylamide gel and transferred to polyvinylidene-fluoride membrane for 1 h at 4° C. at 40 V. The membrane was blocked in TBS (10 mm Tris-HCl, pH 7.4, 150 mm NaCl) containing 5% non-fat dry milk for 1 h at room temperature and was probed with primary antibodies followed by the appropriate HRP-conjugated secondary antibodies (Anti-rabbit IgG, #7074, or Anti-mouse IgG, #7076, 1:5000 Cell Signaling Technology). The primary antibodies used were: anti-Ser-273 PPARγ (bs-4888R, Bioss Antibodies), anti-PPARγ antibody (sc-271392, Santa Cruz Biotechnology), anti-UCP1 (14670S, Cell Signaling Technology, Beverly, MA, USA).", "key": {"[1]": {"details": "SVF of inguinal and epididymal adipose tissues, DIO mice"}, "[2]": {"details": "eWAT of DIO mice, 15 mg/kg i.p. daily 4 weeks"}}, "data": [{"smiles": "Cc1c(C)n(Cc2ccc(-c3ccccc3C(=O)O)cc2)c2ccc(C(=O)NCc3cccc(O)c3)cc12", "note": "[WO95E, 4′-((5-((3-hydroxybenzyl)carbamoyl)-2,3-dimethyl-1H-indol-1-yl)methyl)-[1,1′-biphenyl]-2-carboxylic acid]", "values": [{"measurement": "PPARγ S273 phosphorylation in iWAT", "setting": "DIO mice, 15 mg/kg i.p. daily 4 weeks, Western blot", "result": "markedly inhibited"}, {"measurement": "mRNA levels of browning/thermogenic genes (Prdm16, Cidea, Ppara, CPT1a, UCP1, Cox5b, PGC1α) in iWAT", "setting": "DIO mice, 15 mg/kg i.p. daily 4 weeks, vs vehicle", "result": "significantly increased"}, {"measurement": "adipocyte size in eWAT and iWAT", "setting": "DIO mice, H&E sections, vs vehicle", "result": "significantly smaller"}, {"measurement": "UCP1 protein in iWAT and eWAT", "setting": "DIO mice, Western blotting", "result": "dramatic induction"}, {"measurement": "UCP1 protein in BAT", "setting": "DIO mice, data not shown", "result": "an increase"}, {"measurement": "mRNA levels of thermogenic genes in BAT", "setting": "DIO mice, data not shown", "result": "increased mRNA expression levels of most of these genes"}, {"measurement": "areas of crown-like structures (CLS) in iWAT and eWAT", "setting": "DIO mice, vs vehicle", "result": "dramatically reduced"}, {"measurement": "mRNA levels of M2 macrophage markers (IL4, IL10, Mg1I)", "setting": "[1]", "result": "up-regulated or unchanged"}, {"measurement": "mRNA levels of pan-macrophage markers (CD68, F4/80)", "setting": "[1]", "result": "significantly decreased"}, {"measurement": "genes involved in lipogenesis or adipogenesis", "setting": "[2]", "result": "inhibited"}, {"measurement": "mRNA levels of S273 phosphorylation-repressed genes (Adiponectin, Adipsin, selenbp1, Car3, Ddx-17, Acyl, Rarres2, Cidec)", "setting": "[2]", "result": "up-regulated"}, {"measurement": "mRNA levels of proinflammatory M1 mediators (TNFα, IL1b, IL-6, mcp-1)", "setting": "iWAT and eWAT, DIO mice", "result": "down-regulated"}]}]}
